IC50 data for 16 compounds are collected here from ChEMBL document CHEMBL5360618, “PepScaf: Harnessing Machine Learning with In Vitro Selection toward De Novo Macrocyclic Peptides against IL-17C/IL-17RE Interaction” (J Med Chem, 2023).

As usually defined, the pIC50 is the IC50 on a negative log10 scale, so that one unit is a factor of ten. A higher pIC50 goes with a small IC50.

Each structure is given as a SMILES string. pIC50: −log10 of the molar value. Positions of bridges follow the written chain, without caps; N, C: chain ends. Residues, ends and D or L forms follow the SMILES beside them.

The target of this assay is T1, IL17-RE-IL-17C (Homo sapiens, UniProt Q8NFR9+Q9P0M4).
T1 sequence (Q9P0M4 whole entry): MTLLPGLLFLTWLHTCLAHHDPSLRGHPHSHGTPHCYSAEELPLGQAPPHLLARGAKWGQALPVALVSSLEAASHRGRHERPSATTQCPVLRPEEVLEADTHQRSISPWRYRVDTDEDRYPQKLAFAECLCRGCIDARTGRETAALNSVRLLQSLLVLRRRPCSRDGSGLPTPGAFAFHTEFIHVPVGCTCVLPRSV
T1 sequence (Q8NFR9 whole entry): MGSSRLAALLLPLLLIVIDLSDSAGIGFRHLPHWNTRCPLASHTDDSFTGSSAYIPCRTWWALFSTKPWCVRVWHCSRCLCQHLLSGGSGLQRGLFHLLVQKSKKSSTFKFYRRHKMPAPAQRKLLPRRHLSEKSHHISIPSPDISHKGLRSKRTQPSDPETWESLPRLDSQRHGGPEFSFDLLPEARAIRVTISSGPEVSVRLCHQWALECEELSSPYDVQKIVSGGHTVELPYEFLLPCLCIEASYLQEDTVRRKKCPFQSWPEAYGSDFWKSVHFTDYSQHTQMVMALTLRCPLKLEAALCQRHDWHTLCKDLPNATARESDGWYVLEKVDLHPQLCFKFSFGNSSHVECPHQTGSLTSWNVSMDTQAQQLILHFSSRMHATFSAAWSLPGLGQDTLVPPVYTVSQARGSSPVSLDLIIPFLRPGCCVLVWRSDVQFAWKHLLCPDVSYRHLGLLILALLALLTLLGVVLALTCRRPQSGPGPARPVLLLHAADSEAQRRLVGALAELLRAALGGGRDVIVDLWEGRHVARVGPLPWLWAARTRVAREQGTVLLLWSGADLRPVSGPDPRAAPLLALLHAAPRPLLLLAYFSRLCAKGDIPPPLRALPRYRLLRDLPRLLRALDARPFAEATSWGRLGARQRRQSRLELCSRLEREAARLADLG
Kind of assay: Inhibition of IL-17C/IL-17RE interaction (unknown origin) incubated for 1.5 hrs by ELISA method. In kind it is protein-complex assay. On the technique in general: An ELISA detects its analyte on a solid surface through an enzyme-linked reagent.
In the case of `CC[C@H](C)[C@@H]1NC(=O)[C@H](CCCNC(=N)N)NC(=O)[C@H](Cc2ccc(O)cc2)NC(=O)[C@H](Cc2ccc(O)cc2)NC(=O)[C@H](Cc2c[nH]cn2)NC(=O)[C@H](Cc2c[nH]cn2)NC(=O)[C@H](Cc2ccc(O)cc2)NC(=O)CSC[C@@H](C(=O)NCC(N)=O)NC(=O)CNC(=O)[C@H](C)NC(=O)[C@H](CCC(=O)O)NC(=O)CNC(=O)[C@H](Cc2ccc(O)cc2)NC(=O)[C@H](CC(C)C)NC1=O` ({CH2CO}-YHHYYRILYGEAGCG-NH2; thioether N-14), the pIC50 is less than 4.52.

On to `CC[C@H](C)[C@@H]1NC(=O)[C@H](CCC(=O)O)NC(=O)CNC(=O)[C@H](Cc2ccc(O)cc2)NC(=O)[C@H](CC(C)C)NC(=O)[C@H]([C@@H](C)CC)NC(=O)[C@H](CCCNC(=N)N)NC(=O)[C@H](Cc2ccc(O)cc2)NC(=O)[C@H](Cc2ccc(O)cc2)NC(=O)[C@H](Cc2c[nH]cn2)NC(=O)[C@H](Cc2c[nH]cn2)NC(=O)[C@H](Cc2ccc(O)cc2)NC(=O)CSC[C@@H](C(=O)NCC(N)=O)NC(=O)CNC1=O` ({CH2CO}-YHHYYRILYGEIGCG-NH2; thioether N-14), for which the negative logarithm of the IC50 (pIC50) is 6.37.

Compound `CC[C@H](C)[C@@H]1NC(=O)[C@H](CCCNC(=N)N)NC(=O)[C@H](Cc2ccc(O)cc2)NC(=O)[C@H](Cc2ccc(O)cc2)NC(=O)[C@H](Cc2c[nH]cn2)NC(=O)[C@H](Cc2c[nH]cn2)NC(=O)[C@H](Cc2ccc(O)cc2)NC(=O)CSC[C@@H](C(=O)NCC(N)=O)NC(=O)[C@H](C)NC(=O)[C@H](CC(C)C)NC(=O)[C@H](CCC(=O)O)NC(=O)CNC(=O)[C@H](Cc2ccc(O)cc2)NC(=O)[C@H](CC(C)C)NC1=O` ({CH2CO}-YHHYYRILYGELACG-NH2; thioether N-14) showed a pIC50 of 6.06. This pIC50 lies 0.31 log units lower than the previous one.

For `CC[C@H](C)[C@@H]1NC(=O)[C@H](CCCNC(=N)N)NC(=O)[C@H](Cc2ccc(O)cc2)NC(=O)[C@H](Cc2ccc(O)cc2)NC(=O)[C@H](Cc2c[nH]cn2)NC(=O)[C@H](Cc2c[nH]cn2)NC(=O)[C@H](Cc2ccc(O)cc2)NC(=O)CSC[C@@H](C(=O)NCC(N)=O)NC(=O)CNC(=O)[C@H](CC(C)C)NC(=O)[C@H](CCC(=O)O)NC(=O)CNC(=O)[C@H](Cc2ccc(O)cc2)NC(=O)[C@H](CC(C)C)NC1=O` ({CH2CO}-YHHYYRILYGELGCG-NH2; thioether N-14), the pIC50 is 6.78.

Compound `CC[C@H](C)[C@@H]1NC(=O)[C@H](CCCNC(=N)N)NC(=O)[C@H](Cc2ccc(O)cc2)NC(=O)[C@H](Cc2ccc(O)cc2)NC(=O)[C@H](Cc2cnc[nH]2)NC(=O)[C@H](Cc2cnc[nH]2)NC(=O)[C@H](Cc2ccc(O)cc2)NC(=O)CSC[C@@H](C(=O)NCC(N)=O)NC(=O)CNC(=O)[C@@H]2CCCN2C(=O)[C@H](CCC(=O)O)NC(=O)CNC(=O)[C@H](Cc2ccc(O)cc2)NC(=O)[C@H](CC(C)C)NC1=O` ({CH2CO}-YHHYYRILYGEPGCG-NH2; thioether N-14) gave a pIC50 of less than 4.52.

In the case of `CC[C@H](C)[C@@H]1NC(=O)[C@H](CCCNC(=N)N)NC(=O)[C@H](Cc2ccc(O)cc2)NC(=O)[C@H](Cc2ccc(O)cc2)NC(=O)[C@H](Cc2c[nH]cn2)NC(=O)[C@H](Cc2c[nH]cn2)NC(=O)[C@H](Cc2ccc(O)cc2)NC(=O)CSC[C@@H](C(=O)NCC(N)=O)NC(=O)CNC(=O)[C@H](CC(C)C)NC(=O)CNC(=O)CNC(=O)[C@H](Cc2ccc(O)cc2)NC(=O)[C@H](CC(C)C)NC1=O` ({CH2CO}-YHHYYRILYGGLGCG-NH2; thioether N-14), the pIC50 is 6.68.

`CC[C@H](C)[C@@H]1NC(=O)[C@H](CCCNC(=N)N)NC(=O)[C@H](Cc2ccc(O)cc2)NC(=O)[C@H](Cc2ccc(O)cc2)NC(=O)[C@H](Cc2c[nH]cn2)NC(=O)[C@H](Cc2c[nH]cn2)NC(=O)[C@H](Cc2ccc(O)cc2)NC(=O)CSC[C@@H](C(=O)NCC(N)=O)NC(=O)CNC(=O)[C@H](CC(C)C)NC(=O)[C@H](C(C)C)NC(=O)CNC(=O)[C@H](Cc2ccc(O)cc2)NC(=O)[C@H](CC(C)C)NC1=O` ({CH2CO}-YHHYYRILYGVLGCG-NH2; thioether N-14) had a pIC50 of 6.35.

Regarding `CC[C@H](C)[C@@H]1NC(=O)[C@H](CCCNC(=N)N)NC(=O)[C@H](Cc2ccc(O)cc2)NC(=O)[C@H](Cc2ccc(O)cc2)NC(=O)[C@H](Cc2c[nH]cn2)NC(=O)[C@H](Cc2c[nH]cn2)NC(=O)[C@H](Cc2ccc(O)cc2)NC(=O)CSC[C@@H](C(=O)NCC(N)=O)NC(=O)CNC(=O)[C@H](CC(C)C)NC(=O)[C@H](CCC(=O)O)NC(=O)[C@H](CO)NC(=O)[C@H](Cc2ccc(O)cc2)NC(=O)[C@H](CC(C)C)NC1=O` ({CH2CO}-YHHYYRILYSELGCG-NH2; thioether N-14), the pIC50 was 5.87.

`CC[C@H](C)[C@@H]1NC(=O)[C@H](CCCNC(=N)N)NC(=O)[C@H](Cc2ccc(O)cc2)NC(=O)[C@H](Cc2ccc(O)cc2)NC(=O)[C@H](Cc2c[nH]cn2)NC(=O)[C@H](Cc2c[nH]cn2)NC(=O)[C@H](Cc2ccc(O)cc2)NC(=O)CSC[C@@H](C(=O)NCC(N)=O)NC(=O)CNC(=O)[C@H](CC(C)C)NC(=O)[C@H](CCC(=O)O)NC(=O)CNC(=O)[C@H](Cc2ccc(O)cc2)NC(=O)[C@@H]2CCCN2C1=O` ({CH2CO}-YHHYYRIPYGELGCG-NH2; thioether N-14): the negative-log IC50 (pIC50) was less than 4.52.

`CC(C)C[C@@H]1NC(=O)[C@H](CCC(=O)O)NC(=O)CNC(=O)[C@H](Cc2ccc(O)cc2)NC(=O)[C@H](CC(C)C)NC(=O)[C@H]([C@@H](C)O)NC(=O)[C@H](CCCNC(=N)N)NC(=O)[C@H](Cc2ccc(O)cc2)NC(=O)[C@H](Cc2ccc(O)cc2)NC(=O)[C@H](Cc2c[nH]cn2)NC(=O)[C@H](Cc2c[nH]cn2)NC(=O)[C@H](Cc2ccc(O)cc2)NC(=O)CSC[C@@H](C(=O)NCC(N)=O)NC(=O)CNC1=O` ({CH2CO}-YHHYYRTLYGELGCG-NH2; thioether N-14): the pIC50 was 6.54.

Compound `CC(C)C[C@@H]1NC(=O)[C@H](CCC(=O)O)NC(=O)CNC(=O)[C@H](Cc2ccc(O)cc2)NC(=O)[C@H](CC(C)C)NC(=O)[C@H](C(C)C)NC(=O)[C@H](CCCNC(=N)N)NC(=O)[C@H](Cc2ccc(O)cc2)NC(=O)[C@H](Cc2ccc(O)cc2)NC(=O)[C@H](Cc2c[nH]cn2)NC(=O)[C@H](Cc2cnc[nH]2)NC(=O)[C@H](Cc2ccc(O)cc2)NC(=O)CSC[C@@H](C(=O)NCC(N)=O)NC(=O)CNC1=O` ({CH2CO}-YHHYYRVLYGELGCG-NH2; thioether N-14) showed a pIC50 of 6.38.

Consider `CC[C@H](C)[C@@H]1NC(=O)[C@H](CO)NC(=O)[C@H](Cc2ccc(O)cc2)NC(=O)[C@H](Cc2ccc(O)cc2)NC(=O)[C@H](Cc2c[nH]cn2)NC(=O)[C@H](Cc2c[nH]cn2)NC(=O)[C@H](Cc2ccc(O)cc2)NC(=O)CSC[C@@H](C(=O)NCC(N)=O)NC(=O)CNC(=O)[C@H](CC(C)C)NC(=O)[C@H](CCC(=O)O)NC(=O)CNC(=O)[C@H](Cc2ccc(O)cc2)NC(=O)[C@H](CC(C)C)NC1=O` ({CH2CO}-YHHYYSILYGELGCG-NH2; thioether N-14), for which the pIC50 is 5.60.

Take `CC[C@H](C)[C@@H]1NC(=O)[C@H](Cc2c[nH]cn2)NC(=O)[C@H](Cc2ccc(O)cc2)NC(=O)CSC[C@@H](C(=O)NCC(N)=O)NC(=O)CNC(=O)[C@H](CC(C)C)NC(=O)[C@H](C)NC(=O)CNC(=O)[C@H](Cc2ccc(O)cc2)NC(=O)[C@H](CC(C)C)NC(=O)[C@H](CO)NC(=O)[C@H](C)NC(=O)[C@H](Cc2ccc(O)cc2)NC(=O)[C@H](Cc2ccc(O)cc2)NC1=O` ({CH2CO}-YHIYYASLYGALGCG-NH2; thioether N-14): the pIC50 is 8.04. Against the preceding compound, the pIC50 is 2.44 log units higher.

Take `CC[C@H](C)[C@@H]1NC(=O)[C@H](Cc2c[nH]cn2)NC(=O)[C@H](Cc2ccc(O)cc2)NC(=O)CSC[C@@H](C(=O)NCC(N)=O)NC(=O)CNC(=O)[C@H](CC(C)C)NC(=O)[C@H](CC(=O)O)NC(=O)CNC(=O)[C@H](Cc2ccc(O)cc2)NC(=O)[C@H](CC(C)C)NC(=O)[C@H](CO)NC(=O)[C@H](C)NC(=O)[C@H](Cc2ccc(O)cc2)NC(=O)[C@H](Cc2ccc(O)cc2)NC1=O` ({CH2CO}-YHIYYASLYGDLGCG-NH2; thioether N-14): the pIC50 was 8.85.

`CC[C@H](C)[C@@H]1NC(=O)[C@H](Cc2c[nH]cn2)NC(=O)[C@H](Cc2ccc(O)cc2)NC(=O)CSC[C@@H](C(=O)NCC(N)=O)NC(=O)CNC(=O)[C@H](CC(C)C)NC(=O)[C@H](CCCCN)NC(=O)CNC(=O)[C@H](Cc2ccc(O)cc2)NC(=O)[C@H](CC(C)C)NC(=O)[C@H](CO)NC(=O)[C@H](C)NC(=O)[C@H](Cc2ccc(O)cc2)NC(=O)[C@H](Cc2ccc(O)cc2)NC1=O` ({CH2CO}-YHIYYASLYGKLGCG-NH2; thioether N-14) showed a pIC50 of 8.38.

In turn, `CC[C@H](C)[C@@H]1NC(=O)[C@H](Cc2c[nH]cn2)NC(=O)[C@H](Cc2ccc(O)cc2)NC(=O)CSC[C@@H](C(=O)NCC(N)=O)NC(=O)CNC(=O)[C@H](CC(C)C)NC(=O)[C@H](CC(C)C)NC(=O)CNC(=O)[C@H](Cc2ccc(O)cc2)NC(=O)[C@H](CC(C)C)NC(=O)[C@H](CO)NC(=O)[C@H](C)NC(=O)[C@H](Cc2ccc(O)cc2)NC(=O)[C@H](Cc2ccc(O)cc2)NC1=O` ({CH2CO}-YHIYYASLYGLLGCG-NH2; thioether N-14) showed a pIC50 of 7.92.
